{"source": "paper PMC5051147", "about": "“Ester Hydrolysis Differentially Reduces Aconitine-Induced Anti-hypersensitivity and Acute Neurotoxicity: Involvement of Spinal Microglial Dynorphin Expression and Implications for Aconitum Processing” (Frontiers in Pharmacology, 2016)", "key": {"[1]": {"system": "mechanical allodynia in spinal L5/L6 nerve–ligated neuropathic rats", "experiment": "Mechanical allodynia (von Frey paw withdrawal threshold) after intrathecal injection in spinal nerve-ligated neuropathic rats", "format": "in vivo, rat", "experimental": "An 18-cm polyethylene catheter (PE-10: 0.28-mm inner diameter and 0.61-mm outer diameter, Clay Adams, Parsippany, NJ, USA) with a volume of 13 μL was inserted into the lumbar level of the spinal cord as described elsewhere under inhalational isoflurane anesthesia (4% for induction and 1% for maintenance) run by an anesthesia meter (Ugo Basile Gas Anesthesia System, Comerio, Italy). Two days after recovery from anesthesia, the placement of the catheter in the spinal cord was verified by administration of 4% lidocaine (10 μL, followed by 15 μL of saline for flushing). Rats that had no motor impairment after placement of the intrathecal catheter were considered for the study, and rats that developed immediate bilateral paralysis of the hindlimbs after intrathecal administration of lidocaine were selected for the study. For intrathecal administration of the control and test articles, 10 μL of each drug was injected with a 50-μL microinjector (Shanghai Anting Micro-Injector Factory, Shanghai, China) and was flushed with 15 μL of normal saline solution.\nTo induce hypersensitivity to neuropathic pain, the rats were subjected to spinal nerve ligation as previously described [Kim and Chung (1992)] and [Zhang et al. (2013)]. Unilateral ligation of the L5 and L6 spinal nerves was performed under inhalational isoflurane anesthesia (4% for induction and 1% for maintenance) run by an anesthesia meter (Ugo Basile Gas Anesthesia System). The left L5 and L6 spinal nerves were isolated and tightly ligated with 6-0 silk thread. After ligation, the wound was sutured and the rats were returned to their home cages for recovery. After spinal nerve ligation, only those rats with marked unilateral allodynia to mechanical stimulation (i.e., a hindpaw withdrawal threshold of less than 8 g on the operated side) and with no major impairment were included in the study. Drug testing started 2–4 weeks after spinal nerve ligation.\nTo evaluate mechanical allodynia, the animals were acclimatized for at least 30 min to the test environment, namely, a plexiglass box on a metal grid (0.5 cm × 0.5 cm). The hindpaw withdrawal threshold was measured with a 2450 CE Electronic von Frey hair (IITC Life Science Inc, Woodland Hill, CA, USA). An electronic handheld transducer with a No. 15 monofilament was applied perpendicularly to the medial surface of the hindpaws with increasing force (ranging from 0.1 to 90 g) until the rat suddenly withdrew or licked the hindpaw. The lowest force that produced a withdrawal response was considered to be the threshold, which was the mean of three repeated measurements made in a 5-min interval.\nThe percentage of maximal possible effect (% MPE) was calculated using the following formula: (postdrug threshold in ipsilateral hindlimb – baseline threshold in ipsilateral hindlimb)/(baseline threshold in contralateral hindlimb – baseline threshold in ipsilateral hindlimb) × 100 ([Bowersox et al., 1996]). A % MPE value near 100 indicates normal mechanical thresholds (i.e., near contralateral thresholds), and a value near 0 indicates allodynia. For the dose-response curve analysis, the parameters (i.e., minimum effect; Emax, median effective concentration or dose, or median toxic or lethal dose [EC50, ED50, TD50, or LD50], and Hill coefficient [n]) were calculated from the individual dose-response curves using the Prism program (version 5.01, GraphPad Software, San Diego, CA, USA). To determine the parameters of the dose-response curves, the values of response (Y) were fitted by non-linear least-squares curves to the relation Y = a + bx, where x = [D]^n/(ED50^n + [D]^n), [C]^n/(EC50^n + [C]^n), [D]^n/(TD50^n + [D]^n) or [D]^n/(LD50^n + [D]^n), to give each value of ED50, EC50, TD50, or LD50 and b (Emax) yielding a minimum residual sum of squares of deviations from the theoretical curve ([Wang and Pang, 1993])."}, "[2]": {"system": "prodynorphin gene expression in primary cultures of spinal microglia", "experiment": "Prodynorphin gene expression in cultured primary spinal microglia (real-time quantitative PCR)", "format": "cell-based, rat", "experimental": "Glial cells were isolated from the 1-day-old neonatal rats. The isolated spinal cords were minced and then incubated with trypsin. Dissociated cells were suspended in 75-cm^2 tissue culture flasks (1 × 10^7 cells/flask) precoated with poly-L-lysine and maintained in a 5% CO2 incubator at 37°C. After culture for 10 days, the microglial cells were prepared as floating cell suspensions by shaking the flask at 260 rpm for 2 h. The aliquots were transferred to plates, and the unattached cells were removed by washing with serum-free Dulbecco’s modified Eagle’s medium.\nRNA extraction, reverse transcription, and real-time quantitative PCR were performed as previously described ([Chen et al., 2012]). The spinal lumbar enlargements of rats were collected and mechanically homogenized with an electronic microhomogenizer at 4,000 rpm for 10 s in TRIzol on ice. Total RNA from the spinal lumbar enlargements were isolated using TRIzol reagent (Invitrogen, Grand Island, NY, USA). A 1-μg sample of total RNA was reverse-transcribed with a ReverTra Ace qPCR RT-Kit (Toyobo, Japan). Real-time quantitative PCR was carried out with the Mastercycler ep realplex (Eppendorf, Germany) using the RealmasterMix (SYBR Green I) (Toyobo). The fold change was calculated with the 2^-ΔΔCt method after normalization to the gene of gapdh. […]\nThe percentage of maximal possible effect (% MPE) was calculated using the following formula: (postdrug threshold in ipsilateral hindlimb – baseline threshold in ipsilateral hindlimb)/(baseline threshold in contralateral hindlimb – baseline threshold in ipsilateral hindlimb) × 100 ([Bowersox et al., 1996]). […] For the dose-response curve analysis, the parameters (i.e., minimum effect; Emax, median effective concentration or dose, or median toxic or lethal dose [EC50, ED50, TD50, or LD50], and Hill coefficient [n]) were calculated from the individual dose-response curves using the Prism program (version 5.01, GraphPad Software, San Diego, CA, USA). […]\nPrimary cultures of microglial cells taken from the spinal cords of the neonatal rats were treated with a variety of concentrations of aconitine (1 × 10^-8, 3 × 10^-8, 1 × 10^-7, 3 × 10^-7, and 1 × 10^-6 M), benzolyaconine (3 × 10^-7, 1 × 10^-6, 3 × 10^-6, 1 × 10^-5, 3 × 10^-5, and 1 × 10^-4 M) and aconine (1 × 10^-4, 3 × 10^-4, 1 × 10^-3, 3 × 10^-3, and 1 × 10^-2 M) for 2 h. As the bulleyaconitine A-increased dynorphin A level measured by the enzyme-linked immunosorbent assay was in parallel with the prodynorphin gene expression in spinal microglia from neonatal and adult rats ([Li et al., 2016]), the expression of the cellular prodynorphin gene encoding dynorphin A was only measured in this study using real-time quantitative PCR. […]"}, "mice": {"system": "mice", "conditions": "intravenous injection in mice; ref Mizugaki and Ito, 2005; cited from earlier work"}}, "note": "Entries after “also recorded” stand apart in the source; their conditions may differ."}
{"smiles": "CCN1C[C@]2(COC)[C@H](O)C[C@H](OC)[C@@]34[C@@H]5C[C@@]6(O)[C@H](OC(=O)c7ccccc7)[C@@H]5[C@@](OC(C)=O)([C@@H]([C@H](OC)[C@H]23)[C@@H]14)[C@@H](O)[C@@H]6OC", "note": "[Aconitine, aconitine]", "values": [{"measurement": "Anti-allodynic effect in ipsilateral paws", "setting": "[1]; intrathecal 100 ng", "result": "marked and reversible anti-allodynic effect; also recorded: marked and reversible anti-allodynia"}, {"measurement": "Time of peak effect on mechanical allodynia and heat hyperalgesia", "setting": "[1]; intrathecal, ipsilateral paws, after injection", "result": 1, "unit": "h"}, {"measurement": "Emax, blockade of mechanical allodynia", "setting": "[1]; intrathecal, 1 h after injection", "result": 61.9, "unit": "% MPE"}, {"measurement": "ED50, blockade of mechanical allodynia", "setting": "[1]; intrathecal, % MPE at 1 h after injection", "result": 39, "unit": "pmol"}, {"measurement": "Effect on withdrawal responses in the contralateral paws", "setting": "[1]; intrathecal, mechanical and thermal stimuli", "result": "did not significantly alter the withdrawal responses in the contralateral paws"}, {"measurement": "Potency on microglial dynorphin A expression relative to bulleyaconitine A (more potent by)", "setting": "[2]; EC50 32 nM versus 45 nM", "result": "approximately 0.5 fold"}, {"measurement": "EC50", "setting": "[2]; Rattus norvegicus, primary spinal microglia of neonatal rats, 2 h incubation, read-out: EC50, stimulation of prodynorphin gene (dynorphin A) expression", "result": 32, "unit": "nM"}, {"measurement": "LD50", "setting": "mice", "result": 0.12, "unit": "mg/kg"}]}
